Measured values reported in patent US4910225A, “Locally administrable therapeutic composition for inflammatory disease” (Senju Pharmaceutical Co., Ltd., priority 1988, dated 1990).

Legend:
[1] = system: experimental ophthalmitis induced by bovine serum albumin in white rabbits (ophthalmitis I); assay: Anti-inflammatory effect in ophthalmitis I (bovine serum albumin injected into the vitreous), gross severity scores; type: in vivo; conditions: for Anterior chamber opacity, degree of inhibition relative to physiological saline group / Balbar conjunctival injection, degree of inhibition relative to physiological saline group / Corneal opacity, degree of inhibition relative to physiological saline group / Discharge, degree of inhibition relative to physiological saline group / External + Internal Grand Total Score, degree of inhibition relative to physiological saline group / External Segment Total Score, degree of inhibition relative to physiological saline group / Internal Segment Total Score, degree of inhibition relative to physiological saline group / Iridic injection, degree of inhibition relative to physiological saline group / Morphological change of iris, degree of inhibition relative to physiological saline group / Palpebral conjunctival edema, degree of inhibition relative to physiological saline group / Palpebral conjunctival injection, degree of inhibition relative to physiological saline group / Anterior chamber opacity score (Internal Segment) / Balbar conjunctival injection score (External Segment) / Corneal opacity score (External Segment) / Discharge score (External Segment) / External + Internal Grand Total Score / External Segment Total Score / Internal Segment Total Score / Iridic injection score (Internal Segment) / Morphological change of iris score (Internal Segment) / Palpebral conjunctival edema score (External Segment) / Palpebral conjunctival injection score (External Segment): ophthalmitis I; for Anterior chamber opacity score (Internal Segment) / Balbar conjunctival injection score (External Segment) / Corneal opacity score (External Segment) / Discharge score (External Segment) / External + Internal Grand Total Score / External Segment Total Score / Internal Segment Total Score / Iridic injection score (Internal Segment) / Morphological change of iris score (Internal Segment) / Palpebral conjunctival edema score (External Segment) / Palpebral conjunctival injection score (External Segment): peak inflammatory period of 3 days, mean ± SE
Description: Seventeen male white rabbits weighing about 2 kg were used. They were fed with 80 g of Labo RG-RO (Nippon Agricultural Co., Ltd.) daily and had free access to tap water.
After 28 days when ophthalmitis I had nearly recovered, 2.5% BSA solution was administered in a dose of 25 mg/ml/kg into the auricular vein to cause ophthalmitis (ophthalmitis II). The severity of ophthalmitis was rated according to the rating scale^(1) of Yamauchi et al., based on the Draize method in which an increased weight given to the internal segment of the eye. Observation was made with a frequency of once in one or two days during the peak period of inflammation and once in three or four days before and after the peak period for ophthalmitis I and 3, 6, 12 and 24 hours after intravenous injection of BSA for ophthalmitis II.
^(1) Hideyasu Yamauchi, Makoto Ingu, Tadashi Iso and Kozo Uda: Anti-inflammatory effect of fluorometholone ophthalmic solution in experimental uveitis in rabbits, Folia Ophthalmologica Japonica, 24: 969-79 (1973).
Gross observation was made on the day after injection of BSA into the vitreous body and with the animals arranged in the decreasing order of severity of ocular inflammation, grouping was carried out in such a manner that the intensity distribution would be uniform over the groups. Thus, a physiological saline group of 7 animals, a 0.1% Compound [I] instillation group of 4 animals and a 0.5% Compound [I] instillation group of 5 animals were provided. After this grouping procedure, the test drugs and saline were respectively instilled into both eyes of the rabbits, 50 μl per dose, 4 times a day. For induction of ophthalmitis II, each drug was instilled into both eyes, 50 μl per dose, immediately after injection of BSA into the auricular vein and at 1-hour intervals thereafter, for a total of 14 times.

[2] = system: carrageenin edema in rats; assay: Carrageenin edema of the conjunctiva in rats; type: in vivo; conditions: 4 hours after carrageenin; for Weight of Edema: mean ± SE for 10 eyes
Description: 1. Sodium 3-(4-bromobenzoyl)-2-aminophenyl-acetate (hereinafter referred to as Compound [I])
2. Sodium 3-(4-chlorobenzoyl)-2-aminophenyl-acetate (hereinafter referred to as Compound [II])
3. Sodium 3-benzoyl-2-aminophenylacetate (hereinafter referred to as Compound [III])
Using female Wister rates weighing 100 g in groups of 5 animals or 10 eyes, 0.05 ml of 1% carrageenin (dissolved in physiological saline at 50° C.) as a phlogogen was injected beneath the conjuctiva of both eyes to induce edema. Physiological saline, as a control, and test drugs were respectively instilled into both eyes 40 and 20 minutes before and immediately after the injection of carrageenin, in the amount of 2.5 μl per dose. Four hours after the phlogogen treatment, each animal was sacrificed by cervical dislocation and in accordance with the method of Maistrello et al.^(2), the scalp was peeled off toward the eyelid and the edematous portion together with the skin was removed along the lid margin and weighed.
^(2) Maistrello et al.: Quantitative Effect of Topically Applied Anti-inflammatory Agents on External Ocular Inflammation in Rats: Journal of Pharmaceutical Science, volume 62, pp. 1455-60(1973).

## Nc1c(CC(=O)[O-])cccc1C(=O)c1ccc(Br)cc1.O.[Na+] [Compound [I], Sodium 3-(4-bromobenzoyl)-2-aminophenylacetate monohydrate]
[1]; 0.1% and 0.5%
  Inhibition of ophthalmitis I for the external and the internal segment of the eye: potent and dose-dependent inhibition for both the external and the internal segment of the eye
[1]; 0.1%
  Anterior chamber opacity, degree of inhibition relative to physiological saline group: -20.0%
  Balbar conjunctival injection, degree of inhibition relative to physiological saline group: 30.8%
  Corneal opacity, degree of inhibition relative to physiological saline group: 60.0%
  Discharge, degree of inhibition relative to physiological saline group: 100%
  External + Internal Grand Total Score, degree of inhibition relative to physiological saline group: 41.8%
  External Segment Total Score, degree of inhibition relative to physiological saline group: 50.4%
  Internal Segment Total Score, degree of inhibition relative to physiological saline group: 32.6%
  Iridic injection, degree of inhibition relative to physiological saline group: 57.4%
  Morphological change of iris, degree of inhibition relative to physiological saline group: 34.1%
  Palpebral conjunctival edema, degree of inhibition relative to physiological saline group: 85.7%
  Palpebral conjunctival injection, degree of inhibition relative to physiological saline group: 65.8%
  Anterior chamber opacity score (Internal Segment): 3.6 ± 0.8
  Balbar conjunctival injection score (External Segment): 4.5 ± 0.6
  Corneal opacity score (External Segment): 1.0 ± 0.4
  Discharge score (External Segment): 0
  External + Internal Grand Total Score: 15.9 ± 1.8
  External Segment Total Score: 6.8 ± 1.0
  Internal Segment Total Score: 9.1 ± 1.0
  Iridic injection score (Internal Segment): 2.6 ± 0.2
  Morphological change of iris score (Internal Segment): 2.9 ± 0.4
  Palpebral conjunctival edema score (External Segment): 0.1 ± 0.1
  Palpebral conjunctival injection score (External Segment): 1.3 ± 0.2
[1]; 0.5%
  Anterior chamber opacity, degree of inhibition relative to physiological saline group: 33.3%
  Balbar conjunctival injection, degree of inhibition relative to physiological saline group: 74.5%
  Corneal opacity, degree of inhibition relative to physiological saline group: 48.0%
  Discharge, degree of inhibition relative to physiological saline group: 100%
  External + Internal Grand Total Score, degree of inhibition relative to physiological saline group: 63.0%
  External Segment Total Score, degree of inhibition relative to physiological saline group: 74.5%
  Internal Segment Total Score, degree of inhibition relative to physiological saline group: 51.1%
  Iridic injection, degree of inhibition relative to physiological saline group: 70.5%
  Morphological change of iris, degree of inhibition relative to physiological saline group: 34.1%
  Palpebral conjunctival edema, degree of inhibition relative to physiological saline group: 100%
  Palpebral conjunctival injection, degree of inhibition relative to physiological saline group: 36.8%
  Anterior chamber opacity score (Internal Segment): 2.0 ± 0.4
  Balbar conjunctival injection score (External Segment): 1.6 ± 0.2
  Corneal opacity score (External Segment): 0.4 ± 0.2
  Discharge score (External Segment): 0
  External + Internal Grand Total Score: 10.1 ± 1.0
  External Segment Total Score: 3.5 ± 0.4
  Internal Segment Total Score: 6.6 ± 0.8
  Iridic injection score (Internal Segment): 1.8 ± 0.2
  Morphological change of iris score (Internal Segment): 2.9 ± 0.4
  Palpebral conjunctival edema score (External Segment): 0
  Palpebral conjunctival injection score (External Segment): 1.5 ± 0.3
[2]; 1.0%
  Degree of inhibition (carrageenin edema): 16.9%
  Weight of Edema: 43.93 ± 4.138 mg
[2]; 2.5%
  Degree of inhibition (carrageenin edema): 31.3%
  Weight of Edema: 36.323 ± 3.308 mg
